Values quoted from earlier work in patent US9155707B2, “Core-shell microspheres” (Agency for Science, Technology and Research, priority 2011, dated 2015).

Key:
[1] = reference line in FIG. 10

| solubility in water | SMILES | toxic limit of drug permissible in the blood plasma [1] [ng/mL] |
| --- | --- | --- |
| – | CCCCN1CCCCC1C(=O)Nc1c(C)cccc1C (stereo not drawn) [Bupivacaine, bupivacaine] | 4000 |
| not in water | O=c1[nH]cc(F)c(=O)[nH]1 [Fluorouracil (5-FU), Fluorouracil] | – |
| not very soluble in water | O=S1(=O)OC(c2ccc(O)c(Cl)c2)(c2ccc(O)c(Cl)c2)c2ccccc21 [chlorophenol red (CR), chlorophenol red] | – |
